Reference: US20060019977A1, “Spiroheterocyclic derivative compounds and drugs comprising the compound as the active ingredient” (ONO PHARMACEUTICAL CO., LTD., priority 2002, published 2006)
Counter-ions that a name gives are not always drawn.

Target: T1, human CCR5 (Homo sapiens, UniProt P51681)
T1 construct: expressed in transfected cells
Assay: Inhibition test on the binding of RANTES to CCR5 (RANTES-induced transient increase of Ca ion in CCR5/CHO cells)
Assay type: cell-based
Conditions: human CCR5 stably over-expressing CHO cells; 10 nM recombinant human RANTES; Ca2+ transient increase (Fura-2AM)
Method: Specifically, e.g., since CCR5 is a G protein-coupled seven transmembrane type receptor, an assay system in which the effect of RANTES on the transient increase of Ca ion induced via CCR5 is measured can be carried out as an assay system for screening a compound capable of inhibiting binding of RANTES to CCR5. Since both of the T cell tropic (X4) HIV and SDF-1 bind to CXCR4, similar idea can be considered.
(1) Isolation of Human CCR5 Gene
Human placental cDNA was prepared using Marathon cDNA amplification kit (Clontech). PCR primers hCCR5XbaI-F1: • 5′-[…]-3′ (SEQ ID NO:1) and hCCR5XbaI-R1: • 5′-[…]-3′ (SEQ ID NO:2) were designed based on the sequence of GenBank U54994. […]
The thus established human CCR5 stably over-expressing CHO cell (CCR5/CHO cell) was suspended in Ham's F-12 medium containing FBS (10%) and dispensed in […] portions into a 96 well plate. […] Transient increase in the intracellular Ca^2+ concentration induced by the human RANTES was measured using a Ca^2+ detector for 96 well use (Hamamatsu Photonics), and inhibition ratio (%) of the test compound was calculated by the following calculation formula. Inhibition ratio=(Ec−Ea)/Ec×100 • Ec: measured value of Ca^2+ transient increase by RANTES • Ea: measured value of Ca^2+ transient increase by RANTES when a test compound was added

T1 sequence (P51681 whole entry): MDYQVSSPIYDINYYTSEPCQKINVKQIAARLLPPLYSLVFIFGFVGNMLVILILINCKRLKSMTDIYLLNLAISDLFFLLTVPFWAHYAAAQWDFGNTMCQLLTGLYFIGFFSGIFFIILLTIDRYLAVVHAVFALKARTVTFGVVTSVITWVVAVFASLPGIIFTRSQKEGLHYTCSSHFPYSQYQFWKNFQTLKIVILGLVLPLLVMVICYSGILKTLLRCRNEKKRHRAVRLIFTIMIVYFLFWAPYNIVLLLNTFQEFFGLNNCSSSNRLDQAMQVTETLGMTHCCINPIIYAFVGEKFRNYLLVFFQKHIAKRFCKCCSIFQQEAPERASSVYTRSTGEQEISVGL

Row | IC50 | Structure (SMILES)
1 | 740 nM | CCCCN1C(=O)[C@@H]2CSCN2C(=O)C12CCN(Cc1ccc(Oc3ccccc3)cc1)CC2 [Example 1(1), (3R)-1-butyl-2,5-dioxo-3,4-(2-thiapropano)-9-[(4-phenoxyphenyl)methyl]-1,4,9-triazaspiro[5.5]undecane hydrochloride]
2 | 12 nM | CCCCN1C(=O)C2(CCCC2)NC(=O)C12CCN(Cc1ccc(Oc3ccc(C(=O)NC)cc3)cc1)CC2 [Example 5, 1-butyl-2,5-dioxo-3,3-butano-9-[4-(4methylcarbamoylphenoxy)benzyl]-1,4,9-triazaspiro[5.5]undecane hydrochloride]
